Source: ChEMBL document CHEMBL6153097, “Design, synthesis, and biological evaluation of Flavokavain B derivatives as potent TRF2 inhibitors for the treatment of Osteosarcoma” (Eur J Med Chem, 2025)
Active and inactive are the calls of the source. No cut-off for these calls is given here.

What was measured:
[1] = tested on: U2OS; experiment: Induction of apoptosis in human U2OS cells assessed as early apoptotic cells at 2 uM measured after 48 hrs annexin-V and propidium iodide staining based flow cytometry analysis (reference value: 2.38%); type: functional
[2] = tested on: MG-63; experiment: Antiproliferative activity against human MG-63 cells assessed as reduction in cell viability incubated for 48 hrs by MTT assay; type: functional, cell-based; conditions: MG-63, 48 h
[3] = tested on: U2OS; experiment: Induction of apoptosis in human U2OS cells assessed as necrotic apoptotic cells at 2 uM measured after 48 hrs annexin-V and propidium iodide staining based flow cytometry analysis (reference value: 2.46%); type: functional
[4] = Acute toxicity in mouse assessed as change in weight of lung at 30 to 90 mg/kg, po single dose measured for 7 days; type: organism-based; conditions: in vivo, 168 h, dose 30-90 mg/kg, time 7 day
[5] = tested on: U2OS; experiment: Inhibition of TRF2 expression in human U2OS cells by co-immunoprecipitation based Western blot analysis; type: functional, cell-based
[6] = Inhibition of TRF2 expression in human U2OS cells at 2 uM measured after 48 hrs by Western blot analysis relative to control; type: functional
[7] = tested on: U2OS; experiment: Induction of DNA damage response in human U2OS cells assessed as reduction in TRF2 expression by measuring accumulation of telomere-free ends at 2 to 4 uM by FITC/DAPI based Quantitative FISH (Q-FISH) assay; type: functional, cell-based; conditions: dose 2-4 µM
[8] = tested on: U2OS; experiment: Induction of apoptosis in human U2OS cells assessed as necrotic cells at 4 uM measured after 48 hrs annexin-V and propidium iodide staining based flow cytometry analysis (reference value: 2.46%); type: functional
[9] = Acute toxicity in mouse assessed as change in weight of heart at 30 to 90 mg/kg, po single dose measured for 7 days; type: organism-based; conditions: in vivo, 168 h, dose 30-90 mg/kg, time 7 day
[10] = Acute toxicity in mouse assessed as effect on body weight at 30 to 90 mg/kg, po single dose measured for 7 days; type: organism-based; conditions: in vivo, 168 h, dose 30-90 mg/kg, time 7 day
[11] = tested on: U2OS; experiment: Induction of apoptosis in human U2OS cells assessed as early apoptotic cells at 4 uM measured after 48 hrs annexin-V and propidium iodide staining based flow cytometry analysis (reference value: 2.38%); type: functional
[12] = Acute toxicity in mouse assessed as change in weight of spleen at 30 to 90 mg/kg, po single dose measured for 7 days; type: organism-based; conditions: in vivo, 168 h, dose 30-90 mg/kg, time 7 day
[13] = tested on: MG-63; experiment: Antitumor activity against human MG-63 cells xenografted in female BALB/c mouse model assessed as downregulation of TRF2 in tumor treated via oral gavage administered once a day for 3 weeks by IHC analysis; type: functional, cell-based; conditions: dose 10-60 mg/kg
[14] = Acute toxicity in mouse assessed as change in weight of kidney at 30 to 90 mg/kg, po single dose measured for 7 days; type: organism-based; conditions: in vivo, 168 h, dose 30-90 mg/kg, time 7 day
[15] = tested on: MG-63; experiment: Induction of apoptosis in human MG-63 cells assessed as early apoptotic cells at 2 uM measured after 48 hrs annexin-V and propidium iodide staining based flow cytometry analysis (reference value: 0.66%); type: functional
[16] = tested on: U2OS; experiment: Induction of DNA damage response in human U2OS cells assessed as telomere dysfunction by measuring telomere length shortening at 2 to 4 uM by Immunofluorescence based FISH assay; type: functional, cell-based; conditions: dose 2-4 µM
[17] = tested on: MG-63; experiment: Induction of apoptosis in human MG-63 cells assessed as viable cells at 4 uM measured after 48 hrs annexin-V and propidium iodide staining based flow cytometry analysis (reference value: 90.7%); type: functional; conditions: read-out: Activity
[18] = tested on: MG-63; experiment: Induction of apoptosis in human MG-63 cells assessed as late apoptotic cells at 4 uM measured after 48 hrs annexin-V and propidium iodide staining based flow cytometry analysis (reference value: 7.71%); type: functional
[19] = tested on: U2OS; experiment: Induction of apoptosis in human U2OS cells assessed as viable cells at 2 uM measured after 48 hrs annexin-V and propidium iodide staining based flow cytometry analysis (reference value: 89.2%); type: functional; conditions: read-out: Activity
[20] = tested on: MG-63; experiment: Inhibition of TRF2 expression in human MG-63 cells by co-immunoprecipitation based Western blot analysis; type: functional, cell-based
[21] = Inhibition of TRF2 expression in human MG-63 cells at 2 uM measured after 48 hrs by Western blot analysis relative to control; type: functional
[22] = tested on: MG-63; experiment: Antiproliferative activity against human MG-63 cells assessed as reduction in cell viability at 2 to 4 uM measured for 8 days by PDL assay; type: functional, cell-based; conditions: dose 2-4 µM, time 8.0 day
[23] = tested on: MG-63; experiment: Antitumor activity against human MG-63 cells xenografted in female BALB/c mouse model assessed as nucleocytoplasmic separation in tumor tissue treated via oral gavage administered once a day for 3 weeks by HE staining analysis; type: functional, cell-based; conditions: dose 10-60 mg/kg
[24] = tested on: MG-63; experiment: Induction of apoptosis in human MG-63 cells assessed as necrotic cells at 4 uM measured after 48 hrs annexin-V and propidium iodide staining based flow cytometry analysis (reference value: 0.52%); type: functional
[25] = tested on: MG-63; experiment: Induction of apoptosis in human MG-63 cells assessed as early apoptotic cells at 4 uM measured after 48 hrs annexin-V and propidium iodide staining based flow cytometry analysis (reference value: 0.66%); type: functional
[26] = tested on: MG-63; experiment: Antitumor activity against human MG-63 cells xenografted in female BALB/c mouse model assessed as reduction in Ki67 level in tumor treated via oral gavage administered once a day for 3 weeks by IHC analysis; type: functional, cell-based; conditions: dose 10-60 mg/kg
[27] = tested on: U2OS; experiment: Antiproliferative activity against human U2OS cells assessed as reduction in cell viability incubated for 48 hrs by MTT assay; type: functional, cell-based
[28] = tested on: MG-63; experiment: Induction of DNA damage response in human MG-63 cells assessed as reduction in TRF2 expression by measuring accumulation of telomere-free ends at 2 to 4 uM by FITC/DAPI based Quantitative FISH (Q-FISH) assay; type: functional, cell-based; conditions: dose 2-4 µM

COc1cc(OC)c(C(=O)/C=C/c2cccc(Br)c2)c(OC)c1
Activity [1]: 12.9%
IC50 [2]: 1.52 µM
Activity [3]: 1.18%
Activity [4]: Non-toxic
inhibition [5]: Active
inhibition at 2 µM [6]: 55.1%
Activity [7]: Active
Activity [8]: 0.523%
Activity [9]: Non-toxic
Activity [10]: Non-toxic
Activity [11]: 31%
Activity [12]: Non-toxic
Activity [13]: Dose-dependent-effect
Activity [14]: Non-toxic
Activity [15]: 11.2%
Activity [16]: Dose-dependent-effect
viability at 4 µM [17]: 17.5%
Activity [18]: 61.9%
viability at 2 µM [19]: 67.7%
inhibition [20]: Active
inhibition at 2 µM [21]: 54%
Activity [22]: Active
Activity [23]: Dose-dependent-effect; Significant Than Control
Activity [24]: 5.47%
Activity [25]: 15.2%
Activity [26]: Dose-dependent-effect; Compound Showed Significantly Stronger Effect Than Ar And Fkb04
IC50 [27]: 5.28 µM
Activity [28]: Active
